Data as given in patent US10758623B2, “Pharmaceutically active agent complexes, polymer complexes, and compositions and methods involving the same” (Durect Corporation, priority 2013, dated 2020).
Where two headings read alike, the source gives them in different places.

Key:
Assay type in all cases: physicochemical
[1] = Stability following exposure to gamma radiation, RPLC purity (Example 30)
Excerpt: The APIs were mixed with the complexable polymers at a ratio of 1:1, 1:4 or 1:10. The instantaneous precipitation was separated from reaction media (ammonium bicarbonate in water) and dried via lyophilization. The dried powder or the dried powder suspended in Benzyl Benzoate were loaded either in glass vial or plastic syringes (Intervene) and packed in aluminum pouches. These samples were exposed to gamma radiation (12.5 kGy-17.5 kGy) for more than 8 hrs at room temperature with radiation indicator sticker (Sterigenics, Corona, Calif.). These gamma irradiated samples were then analyzed for purity using reverse phase liquid chromatography (RPLC) in reference to non-gamma irradiated samples.

[2] = In vitro dissolution of decitabine and azacytidine from amine functionalized copolymer complex (Example 12); settings: complex with amine functionalized copolymer (Example 2H); PBS pH 7.4, 37° C.; FIG. 7
Protocol: 1.00 g of decitabine or azacytidine powder was placed in a 150 mL wide-mouth glass jar. 100 mL of 50 mM NH4HCO3 solution were added, and the mixture was stirred at 400 rpm for 30 min at room temperature (until it became a visibly clear solution).
100 mL of a 10 mg/mL solution of functionalized complexation polymer were then prepared by stirring 1.00 g of polymer in 100 mL of MilliQ water at 400 rpm (until it became a clear solution).
(§1) The decitabine or azacytidine solution was combined with the complexation polymer solution at specific ratios as set forth below and monitored for precipitation. The combined materials were stirred for 30 min and then centrifuged in 50 mL Falcon™ tubes. The supernatant solution was removed for HPLC analysis to determine the quantity of free pharmaceutically active agent (not complexed). The resultant precipitate was resuspended in 50-100 mL of 50 mM NH4HCO3 solution and lyophilized according to the method described in Example 3.
Lyophilized complex powder was suspended in 1 mL ammonium bicarbonate (50 mM).
For dissolution or in vitro release testing, PBS (Phosphate buffered saline) pH˜7.4 was used as the medium, and the complexed powder was dispersed into the dissolution medium. […] The amount of decitabine or azacytidine in solution at each time point was determined by HPLC.

[3] = Attempted complexation of risperidone with carboxylate-functionalized 50:50 copolymer (Example 10); settings: reaction mixture at pH ~5
Protocol: Dissolution experiments were conducted as set forth below to determine the in vitro release from a mixture of risperidone and a carboxylate-functionalized 50:50 copolymer prepared as described in Example 2E. […] This observation is mainly due to the limited solubilities of risperidone and the copolymer in the reaction mixture at pH˜5.
1.00 g of a risperidone powder was placed in a 150 mL wide-mouth glass jar. 100 mL of 50 mM NH4COOCH3 solution were added, and the mixture was stirred at 400 rpm for 30 min at room temperature (until it became a visibly clear solution).
100 mL of a 10 mg/mL solution of functionalized polymer were then prepared by stirring 1.00 g of polymer in 100 mL of MilliQ water at 400 rpm (until it became a clear solution).
as §1, with “pharmaceutically active agent” for “decitabine or azacytidine”, “the” for “the complexation”, “precipitated).” for “complexed).”, “NH4COOCH3” for “NH4HCO3”

For `CCCCCCCCCCCCCCCC(=O)N[C@@H](CCC(=O)NCCCC[C@H](NC(=O)[C@H](C)NC(=O)[C@H](C)NC(=O)[C@H](CCC(N)=O)NC(=O)CNC(=O)[C@H](CCC(=O)O)NC(=O)[C@H](CC(C)C)NC(=O)[C@H](Cc1ccc(O)cc1)NC(=O)[C@H](CO)NC(=O)[C@H](CO)NC(=O)[C@@H](NC(=O)[C@H](CC(=O)O)NC(=O)[C@H](CO)NC(=O)[C@@H](NC(=O)[C@H](Cc1ccccc1)NC(=O)[C@@H](NC(=O)CNC(=O)[C@H](CCC(=O)O)NC(=O)[C@H](C)NC(=O)[C@@H](N)Cc1cnc[nH]1)[C@@H](C)O)[C@@H](C)O)C(C)C)C(=O)N[C@@H](CCC(=O)O)C(=O)N[C@@H](Cc1ccccc1)C(=O)N[C@H](C(=O)N[C@@H](C)C(=O)N[C@@H](Cc1c[nH]c2ccccc12)C(=O)N[C@@H](CC(C)C)C(=O)N[C@H](C(=O)N[C@@H](CCCNC(=N)N)C(=O)NCC(=O)N[C@@H](CCCNC(=N)N)C(=O)NCC(=O)O)C(C)C)[C@@H](C)CC)C(=O)O` [Liraglutide], the “stability after 15 kGy gamma irradiation, non-complexed API” value ([1]; RPLC, relative to the complexed APIs, with a corresponding reduction in potency) was “degraded faster”.

For `Nc1ncn([C@@H]2O[C@H](CO)[C@@H](O)[C@H]2O)c(=O)n1` [azacytidine], the “stability under the tested dissolution conditions” value [2] was “significantly degraded”.

In the case of `Cc1nc2n(c(=O)c1CCN1CCC(c3noc4cc(F)ccc34)CC1)CCCC2` [risperidone], the “complexation outcome with carboxylate-functionalized 50:50 copolymer (Example 2E)” value [3] is reported as “precipitated separately”.

For “HGH: Human Growth Hormone (Biosolutions)”, the “stability after 15 kGy gamma irradiation, non-complexed API” value [1] was “degraded faster”.
